Data on 6 compounds can be found in EP0351767A2, “Use of potassium channel activators to inhibit myocardial cell necrosis and to maintain the functioning of the heart during myocardial ischemia and/or reperfusion” (E.R. SQUIBB & SONS, INC., priority 1988, dated 1990).

Data set [1] has as its system isolated, buffer perfused rat hearts. Put plainly: Global ischemia (25 min) and reperfusion (30 min) in isolated, buffer perfused rat hearts (Langendorff). The protocol: For the determination of the effect of the potassium channel activators pinacidil and BRL 34915 (cromakalim) on post-ischemic necrosis and function, isolated, buffer perfused rat hearts were used. Male Sprague-Dawely rats (450-550 g) were used for all experiments. The rats were anesthetized using 30 mg/kg sodium pentobarbital (i.p.) They were intubated and then treated with i.v. heparin (1000 U/kg). While being mechanically ventilated, their hearts were perfused in situ via retrogade cannulation of the aorta. The hearts were then excised and quickly moved to a Langendorff apparatus where they were perfused with Krebs-Henseleit (1.25 mM CaCl₂) buffer at a constant pressure (80 mmHg). A saline-filled latex balloon attached to a metal cannula was then inserted into the left ventricle and connected to a Statham pressure transducer for measurement of left ventricular systolic and developed (LVDP) pressure. The hearts were allowed to equilibrate for 15 minutes at which time end diastolic pressure (EDP) was adjusted to 5 mm Hg and this was maintained for 5 minutes. Pre-ischemia, pre-drug function (HRXLVDP/1000), heart rate, and coronary blood flow (extracorporeal electromagnetic flow probe, Carolina Medical Electronics, King, N.C.) were then determined.
Once the baseline measurements were made, the hearts were divided into 4 groups (n=4-6 each): 1. Hearts receiving vehicle. 2. Hearts receiving 1, 10 or 100 µM pinacidil. 3. Hearts receiving 1 or 7 µM BRL 34915. 4. Hearts receiving 1, 10 or 100 µM nicroandil. Each heart received its respective treatment in the perfusion buffer for 10 minutes at which time functional and flow parameters were again measured. All hearts were then made globally ischemic by shutting off the perfusate for 25 minutes. Reperfusion was then instituted with the normal nondrug treated buffer. Reperfusion was maintained for 30 minutes at which time flow and functional parameters were again measured. Lactate dehydrogenase (LDH) release into the reperfusion effluent was measured and this is a measure of myocardial cell death or necrosis. The severity of ischemia was determined by the return of function during reperfusion, mitigation of contracture (lower end diastolic pressure) and LDH release.

For data set [2], the system named is rat portal vein. The data set is described as follows: Inhibition of spontaneous mechanical activity (twitch height and frequency) in isolated rat portal vein. The settings on record: for IC50: Rattus norvegicus. On the procedure:
(§1) A bicarbonate buffered physiological salt solution (PSS) was used containing, in mM: 118.4 NaCl, 4.7 KCl, 1.2 KH₂PO₄ 1.2 MgSO₄, 2.5 CaCl₂, 25.0 NaHCO₃ and 11.7 glucose. PSS with varying concentrations of KCl was prepared by addition of appropriate amounts of KCl from a 4M KCl stock. Calcium free PSS was prepared by deletion of CaCl₂ and addition of 1.0 mM [ethylenebis(oxyethylenitrilo)]-tetraacetic acid (EGTA). All solutions were aerated with 95% O₂-5% CO₂ such that the pH was 7.4. Experiments were conducted at 37°C.
Stock solutions of test compounds were prepared daily. The compounds were dissolved in water or DMSO as appropriate.
(§2) Normotensive male Wistar Kyoto rats approximately 14 weeks old were sacrificed using CO₂. The thoracic aorta and portal vein were quickly removed and placed into cold PSS. Blood was rinsed from the lumen and adherent connective tissue was carefully removed. Rings approximately 4 mm in width were cut from each aorta. The endothelium was mechanically removed by inserting a wire into the lumen and gently rolling the ring on filter paper moistened with PSS. The aortic rings were mounted on stainless steel tissue wires attached to tissue holders. An intact segment of portal vein extending approximately 2 cm from the liver hilus was mounted longitudinally on tissue holders. The tissues were suspended in individual 20 ml organ chambers and connected to a micrometer for control of tissue length and a Grass FT.03 force transducer. Mechanical responses were recorded on Grass Model 7D polygraphs.
The rat portal vein segments were gradually stretched over a 1 to 2 hour equilibration period to a preload of 0.5 g. When the frequency and height of the spontaneous twitches had stabilized, propranolol (1 µM) was added and cumulative concentration response curves were obtained for the test compounds. A steady state reduction of the twitch height and frequency was reached before the next concentration was added.
Force development by the portal vein segments was determined at the peak of the twitch. The effect of each compound on force was calculated relative to the force in its absence. IC₅₀ values were determined at the concentration where 50% of the maximal inhibition force was attained. In addition, the relative frequency of twitches was determined by counting the number of twitches in a 5 minute period following drug addition and determining the change in rate from basal (absence of test compund). Results were then calculated as % inhibition of twitch frequency. Data are report as mean ± SEM.

Data set [3] relates to awake dogs with acute myocardial infarction. The settings on record: cited from earlier work.
Data set [4] relates to aorta. Put plainly: Comparison of potency in aorta (phenylephrine contractions) and portal vein. Also noted: species or system rat. To be noted: portal vein compared with aorta. On the procedure: as §1
as §2, with “The tissues were suspended in individual 20 ml organ chambers and connected to a micrometer for control of tissue length and a Grass FT.03 force transducer.” left out

Data set [5] concerns Ischemic-Reperfused Myocardium. The settings on record: infusion prior to and during a 15-min coronary occlusion; 3-h reperfusion period; cited from earlier work.
[6] abbreviates: inhibition of spontaneous mechanical activity (twitch height), cumulative concentration response curves, propranolol 1 µM present, N=4 (cromakalim, pinacidil N=5), read-out: IC₅₀.

Each structure is given as a SMILES string. Like-named read-outs stand apart in the source and are kept apart here.

For `CC1(C)Oc2ccc(C#N)cc2[C@@H](N2CCCC2=O)[C@@H]1O` (racemic) [Cromakalim, (±)-6-cyano-3,4-dihydro-2,2-dimethyl-trans-4-(2-oxo-1-pyrrolidyl)-2H-benzo[b]-pyran-3-ol], in data set [1] (7 µM), the “LDH release and thus necrosis” value is recorded as “reduced”; the “myocardial function during reperfusion” value was “improved”. Further, the IC50 in data set [2] (setting [6]) is 0.12 µM.

Consider `CC1(C)Oc2ccc(C#N)cc2[C@@H](N)[C@@H]1O` (relative stereo) [SQ 32,844, (trans)-4-amino-3,4-dihydro-3-hydroxy-2,2-dimethyl-2H-1-benzopyran-6-carbonitrile], for which the IC50 in data set [2] (setting [6]) amounted to 38 µM.

On to `CC(NC(=NC#N)Nc1ccncc1)C(C)(C)C` (single isomer, unassigned; (+)) [Pinacidil, (+)-2-cyano-1-(4-pyridyl)-3-(1,2,2-trimethylpropyl)guanidine], for which, in data set [3], the “blood flow to ischemic myocardium” value is on record as “no effect” and the infarct size entry is “no effect”. Further, in data set [1] (10 µM, 30 min reperfusion), the post-ischemic cardiac function entry is “significantly improved” and the “reperfusion end diastolic pressure (EDP) (contracture)” value was “reduced”. Also, in data set [1] (100 µM), the “toxic effects (before ischemia reduction in function)” value was “a tendency for toxic effects”. For the same compound, the anti-ischemic activity result in data set [1] (1 and 100 µM in perfusion buffer for 10 min before ischemia) is on record as “did not show any marked anti-ischemic activity”. In addition, the “necrosis as measured by lactate dehydrogenase (LDH) release” value in data set [1] (at the doses used (1, 10 or 100 µM)) is recorded as “did not significantly reduce necrosis”. Also, the IC50 in data set [2] (setting [6]) amounted to 0.15 µM.

Take `Nc1nc2c(nc(Br)n2[C@@H]2O[C@@H]3COP(=O)(O)O[C@H]3[C@H]2O)c(=O)[nH]1` [8-Bromo cyclic GMP]: in data set [2] (setting [6]), the IC50 was 43 µM. The twitch frequency result in data set [2] (frequency of spontaneous contractions with increasing concentration) is “reduced twitch frequency”.

Regarding `O=C(NCCO[N+](=O)[O-])c1cccnc1` [Nicorandil, N-(2-hydroxyethyl)nicotinamide nitrate ester], the “potency in the aorta and portal vein” value in data set [4] is on record as “reduced potency”. Besides, the “effectiveness (anti-ischemic)” value in data set [1] (any dose used (1, 10 or 100 µM)) is listed as “not showed to be effective”. For the same compound, the “recovery of mycocardial segment function (%SS, dL/dt)” value in data set [5] was “significantly improved recovery”. Moreover, the IC50 came to 5.1 µM in data set [2] (values restated in text, read-out: IC₅₀ (50% of the maximum inhibition) in the inhibition of spontaneous mechanical activity in rat portal vein) and 5.1 µM in data set [2] (setting [6]).

Regarding `O=C(O)c1cccnc1` [nicotinic acid], the “recovery of mycocardial segment function (%SS, dL/dt)” value in data set [5] is listed as “significantly improved recovery”.
